US7659293B2, “α-Amino-N-hydroxy-acetamide derivatives” (Novartis AG, priority 2001, dated 2010)
Structures can show the parent of a compound that is named as a salt.

Target: T1, MMP2 (gelatinase A) (Homo sapiens, UniProt P08253)
T1 construct: made in house; host or cells: baculovirus (pFAST BAC 1) in Tn insect cells, secreted
T1 sequence (P08253 110-660): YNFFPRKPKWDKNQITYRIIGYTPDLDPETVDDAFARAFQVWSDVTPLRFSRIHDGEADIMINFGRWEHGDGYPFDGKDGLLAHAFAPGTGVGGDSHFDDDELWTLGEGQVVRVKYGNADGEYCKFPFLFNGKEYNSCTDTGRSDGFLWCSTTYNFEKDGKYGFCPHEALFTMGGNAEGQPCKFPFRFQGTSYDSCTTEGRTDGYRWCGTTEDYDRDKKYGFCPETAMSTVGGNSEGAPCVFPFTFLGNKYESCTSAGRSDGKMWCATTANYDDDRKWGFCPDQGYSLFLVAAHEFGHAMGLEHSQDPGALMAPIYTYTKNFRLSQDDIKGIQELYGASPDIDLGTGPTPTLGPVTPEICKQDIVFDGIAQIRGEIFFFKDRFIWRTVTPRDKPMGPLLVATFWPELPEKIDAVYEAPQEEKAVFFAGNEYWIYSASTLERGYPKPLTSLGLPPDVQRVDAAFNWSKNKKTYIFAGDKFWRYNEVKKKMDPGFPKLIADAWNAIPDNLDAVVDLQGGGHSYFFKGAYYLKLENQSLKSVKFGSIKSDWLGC
Assay: MMP2 (gelatinase A) fluorogenic substrate inhibition assay
Format: biochemical
Conditions: mean ± SEM of three independent experiments
Experimental: The inhibitory activities of compounds of formula I on MT1-MMP, MMP1 (collagenase 1) and MMP2 (gelatinase A) can be determined as follows:
Stock solutions of substrate (MCA-Pro-Leu-Gly-Leu-Dpa-Ala-Arg-NH2 (SEQ ID NO: 1), C. G. Knight, et al, FEBS lett., 296, 263-266, (1992)), are prepared in 100% DMSO at a concentration 1.0 mM.
Stock solutions of inhibitors are prepared in 100% DMSO. The inhibitor is diluted into the assays from a solution in 100% DMSO, and controls substitute an equal volume of DMSO so that the final DMSO concentration from inhibitor and substrate dilutions in all assays is 6.0%. Assays are performed in assay buffer (150 mM NaCl, 10 mM CaCl2, 50 mM Tris-Cl pH7.5, 0.05% Brij-35) containing 6.0% DMSO once the substrate and inhibitor are diluted into it. The substrate concentration used in the assays is […]. The test is carried out at 37° C. The fluorescence changes are monitored using an excitation wavelength of 320 nm and an emission wavelength of […]. The reaction mixture is added in duplicate to appropriate wells of a 96 well microfluor plate. The reaction mixture is preincubated with the inhibitor for 30 min, the reaction is started by the addition of MMP enzyme and the fluorescence intensity is measured for 10 min. A time point that is on a linear part of the curve is chosen to determine the activity. […]

- IC50: 3.29 ± 0.49 nM
SMILES: CN(C)c1ccc(CN(CC(=O)NO)S(=O)(=O)c2ccc(OCC3CC3)cc2)cc1 [Example 2, 2-[(4-Cyclopropylmethoxy-benzenesulfonyl)-(4-dimethylamino-benzyl-amino]-N-hydroxy-acetamide HCl salt]
